Data published in patent US6046217A, “2,3,5-trisubstituted pyridines as inhibitors of cyclooxygenase-2” (Merck Frosst Canada & Co., priority 1998, dated 2000).
Like-named read-outs stand apart in the source and are kept apart here.

Columns and labels:
COX-1 [1] = target: T1, COX-1 (Homo sapiens, UniProt P23219); experiment: Assay of COX-1 activity from U937 cell microsomes (PGE2); assay type: biochemical; design: Assay of COX-1 Activity from U937 Cell Microsomes; endogenous in cells; host or cells: U937 cells, 100,000 x g microsomal pellet; conditions: 15 min preincubation
Description: U 937 cells are pelleted by centrifugation at 500×g for 5 min and washed once with phosphate-buffered saline and repelleted. Cells are resuspended in homogenization buffer consisting of 0.1 M Tris-HCl, pH 7.4, 10 mM EDTA, […] leupeptin, 2 μg/ml soybean trypsin inhibitor, 2 μg/ml aprotinin and 1 mM phenyl methyl sulfonyl fluoride. The cell suspension is sonicated 4 times for 10 sec and is centrifuged at 10,000×g for 10 min at 4° C. The supernatant is centrifuged at 100,000×g for 1 hr at 4° C. The 100,000×g microsomal pellet is resuspended in 0.1 M Tris-HCl, pH 7.4, 10 mM EDTA to approximately 7 mg protein/ml and stored at -80° C.
Microsomal preparations are thawed immediately prior to use, subjected to a brief sonication, and then diluted to a protein concentration of 125 μg/ml in 0.1 M Tris-HCl buffer, pH 7.4 containing 10 mM EDTA, 0.5 mM phenol, 1 mM reduced glutathione and 1 μM hematin. Assays are performed in duplicate in a final volume of 250 μl. Initially, 5 μl of DMSO vehicle or drug in DMSO are added to 20 μl of 0.1 M Tris-HCl buffer, pH 7.4 containing 10 mM EDTA in wells of a 96-deepwell polypropylene titre plate. 200 μl of the microsomal preparation are then added and pre-incubated for 15 min at room temperature before addition of 25 μl of […] arachidonic acid in […] Tris-HCl and 10 mM EDTA, pH 7.4. Samples are incubated for 40 min at room temperature and the reaction is stopped by the addition of 25 μl of 1 N HCl. Samples are neutralized with 25 μl of 1 N NaOH prior to quantitation of PGE2 content by radioimmunoassay (Dupont-NEN or Amersham assay kits). Cyclooxygenase activity is defined as the difference between PGE2 levels in samples incubated in the presence of arachidonic acid and ethanol vehicle.
In the assay, inhibition is determined by measuring the amount of prostaglandin E2 (PGE2) synthesized in the presence of arachidonic acid, cyclooxygenase-1 or cyclooxygenase-2 and a putative inhibitor.

COX-2 [2] = target: T2, COX-2 (Homo sapiens, UniProt P35354); experiment: cell-based; conditions: human whole blood, LPS-induced PGE2, 24 h; read-out: COX-2 (IC50 mM) HWB
T2 sequence (P35354 18-604): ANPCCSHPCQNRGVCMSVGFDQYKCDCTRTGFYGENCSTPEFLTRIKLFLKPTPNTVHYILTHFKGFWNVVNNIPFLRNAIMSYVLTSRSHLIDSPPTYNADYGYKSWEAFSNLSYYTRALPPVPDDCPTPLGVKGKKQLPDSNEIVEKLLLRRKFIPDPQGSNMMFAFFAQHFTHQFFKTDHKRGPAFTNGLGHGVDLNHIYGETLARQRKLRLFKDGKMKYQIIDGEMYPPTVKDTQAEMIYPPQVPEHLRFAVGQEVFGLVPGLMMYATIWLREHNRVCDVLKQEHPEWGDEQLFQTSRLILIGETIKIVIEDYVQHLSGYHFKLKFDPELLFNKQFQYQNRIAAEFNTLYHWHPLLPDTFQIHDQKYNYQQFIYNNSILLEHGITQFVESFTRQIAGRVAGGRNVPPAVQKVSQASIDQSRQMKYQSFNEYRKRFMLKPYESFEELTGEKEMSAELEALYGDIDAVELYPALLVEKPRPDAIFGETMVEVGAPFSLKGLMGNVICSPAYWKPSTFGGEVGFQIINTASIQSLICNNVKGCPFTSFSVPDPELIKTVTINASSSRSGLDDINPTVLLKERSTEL
Text: (§1) As well, platelets in whole blood contain a large amount of the COX-1 enzyme. Immediately following blood clotting, platelets are activated through a thrombin-mediated mechanism. This reaction results in the production of thromboxane B2 (TxB2) via activation of COX-1. Thus, the effect of test compounds on TxB2 levels following blood clotting can be examined and used as an index for COX-1 activity. Therefore, the degree of selectivity by the test compound can be determined by measuring the levels of PGE2 after LPS induction (COX-2) and TxB2 following blood clotting (COX-1) in the same assay.
Fresh blood is collected in heparinized tubes by venipuncture from both male and female volunteers. The subjects have no apparent inflammatory conditions and have not taken any NSAIDs for at least 7 days prior to blood collection. Plasma is immediately obtained from a 2mL blood aliquot to use as blank (basal levels of PGE2). The remaining blood is incubated with LPS (100 μg/ml final concentration, Sigma Chem, #L-2630 from E. coli; diluted in 0.1% BSA (Phosphate buffered saline) for 5 minutes at room temperature. Five hundred […] aliquots of blood are incubated with either 2 μL of vehicle (DMSO) or 2 μL of a test compound at final concentrations varying from 10 nM to 30 μM for 24 hours at 37° C. At the end of the incubation, the blood is centrifuged at 12,000×g for 5 minutes to obtain plasma. A 100 μL aliquot of plasma is mixed with 400 μL of methanol for protein precipitation. The supernatant is obtained and is assayed for PGE2 using a radioimmunoassay kit (Amersham, RPA#530) after conversion of PGE2 to its methyl oximate derivative according to the manufacturer's procedure. […]

COX-1 [3] = target: T1, COX-1; experiment: Human whole blood assay, COX-1 (clotting-induced TxB2 production); assay type: cell-based; design: platelets in whole blood contain a large amount of the COX-1 enzyme; endogenous in cells; host or cells: platelets in fresh human whole blood, clotting
Text: as §1
Fresh blood is collected into vacutainers containing no anticoagulants. […] The tubes are vortexed and incubated at 37° C. for 1 hour to allow blood to clot. At the end of incubation, serum is obtained by centrifugation (12,000×g for 5 min.). A 100 μL aliquot of serum is mixed with 400 μL of methanol for protein precipitation.

COX-2 [4] = target: T2, COX-2; experiment: cell-based; conditions: CHO[hCOX-2] cells, 10 μM AA, 15 min preincubation; read-out: COX-2 (IC50 mM) CHO
Description: For cyclooxygenase assays, CHO[hCOX-1] cells from suspension cultures and CHO[hCOX-2] cells prepared by trypsinization of adherent cultures are harvested by centrifugation (300×g, 10 min) and washed once in HBSS containing 15 mM HEPES, pH 7.4, and resuspended in HBSS, 15 mM HEPES, pH 7.4, at a cell concentration of 1.5×10^6 cells/ml. Drugs to be tested are dissolved in DMSO to 66.7-fold the highest test drug concentration. […] Cells (0.3×10^6 cells in 200 μl) are preincubated with 3 μl of the test drug or DMSO vehicle for 15 min at 37° C. Working solutions of peroxide-free AA (5.5 μM and 110 μM AA for the CHO [hCOX-1] and CHO [COX-2] assays, respectively) are prepared by a 10-fold dilution of a concentrated AA solution in ethanol into HBSS containing 15 mM HEPES, pH 7.4. Cells are then challenged in the presence or absence of drug with the AA/HBSS solution to yield a final concentration of 0.5 μM AA in the CHO[hCOX-1] assay and a final concentration of 10 μM AA in the CHO[hCOX-2] assay. The reaction is terminated by the addition of 10 μl 1 N HCl followed by neutralization with 20 μl of 0.5 N NaOH. The samples are centrifuged at 300 ×g at 4° C. for 10 min, and an aliquot of the clarified supernatant is appropriately diluted for the determination of PGE2 levels using an enzyme-linked immunoassay for PGE2 (Correlate PGE2 enzyme immunoassay kit, Assay Designs, Inc.). Cyclooxygenase activity in the absence of test compounds is determined as the difference in PGE2 levels of cells challenged with arachidonic acid versus the PGE2 levels in cells mock-challenged with ethanol vehicle. Inhibition of PGE2 synthesis by test compounds is calculated as a percentage of the activity in the presence of drug versus the activity in the positive control samples.

[5] = U-937 cell microsomes, read-out: COX-1 (IC50 mM) U-937
[6] = human whole blood, clotting-induced TxB2, 1 h, read-out: COX-1 (IC50 mM) HWB

T1 sequence (P23219 24-599): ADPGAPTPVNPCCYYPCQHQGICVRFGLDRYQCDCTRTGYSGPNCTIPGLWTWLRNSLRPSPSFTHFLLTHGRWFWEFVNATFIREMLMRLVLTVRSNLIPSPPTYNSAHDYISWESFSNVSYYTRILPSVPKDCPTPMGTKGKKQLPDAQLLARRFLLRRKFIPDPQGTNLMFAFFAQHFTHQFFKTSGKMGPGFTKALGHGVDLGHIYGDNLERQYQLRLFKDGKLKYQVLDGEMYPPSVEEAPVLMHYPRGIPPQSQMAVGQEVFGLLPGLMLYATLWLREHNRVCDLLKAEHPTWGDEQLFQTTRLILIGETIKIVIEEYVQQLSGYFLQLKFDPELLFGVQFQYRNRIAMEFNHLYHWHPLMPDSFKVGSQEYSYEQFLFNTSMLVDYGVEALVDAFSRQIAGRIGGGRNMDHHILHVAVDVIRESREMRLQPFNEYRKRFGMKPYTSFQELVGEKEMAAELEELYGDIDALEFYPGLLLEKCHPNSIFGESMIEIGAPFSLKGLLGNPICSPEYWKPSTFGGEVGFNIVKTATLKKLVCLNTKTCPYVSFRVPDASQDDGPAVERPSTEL

| Structure (SMILES) | IC50 (COX-1 [1]; [5]) [mM] | IC50 (COX-2 [2]) [mM] | IC50 (COX-1 [3]; [6]) [mM] | IC50 (COX-2 [4]) [µM] | IC50 (COX-1 [1]; COX-1 (IC50 mM) U-937, U-937 cell microsomes) [mM] | IC50 (COX-1 [3]) [mM] |
| --- | --- | --- | --- | --- | --- | --- |
| CC(C)(O)/C=C\c1ncc(Cl)cc1-c1ccc(S(C)(=O)=O)cc1 [Example 51, 5-Chloro-2-((Z)-3-Hydroxy-3-methyl-1-butenyl)-3-(4-methylsulfonyl)phenylpyridine] | 0.001 to 0.003 | 0.0008 | 0.01 | 0.01 | – | – |
| CS(=O)(=O)c1ccc(-c2cc(C(F)(F)F)cnc2OCC2(O)CCCC2)cc1 [Example 13, 2-(1-Hydroxycyclopentyl)methoxy-3-(4-methylsulfonyl)phenyl-5-trifluoromethylpyridine] | 0.01 | – | 0.096 | – | – | – |
| CCC(O)(CC)[C@@H](C)Oc1ncc(C(F)(F)F)cc1-c1ccc(S(C)(=O)=O)cc1 [Example 21, 2-((2R)-3-Ethyl-3-hydroxy-2-pentyloxy)-3-(4-methylsulfonyl)phenyl-5-trifluoromethylpyridine] | > 0.01 | 0.0047 | > 0.1 | 0.2 | – | – |
| C[C@H](CO)Oc1ncc(C(F)(F)F)cc1-c1ccc(S(C)(=O)=O)cc1 [Example 28, 2-((2R)-1-Hydroxy-2-propyloxy)-3-(4-methylsulfonyl)phenyl-5-trifluoromethylpyridine] | > 0.01 | 0.0112 | > 0.1 | 0.04 | – | – |
| CC(C)(O)CSc1ncc(C(F)(F)F)cc1-c1ccc(S(C)(=O)=O)cc1 [Example 43, 2-(2-Hydroxy-2-methyl-1-thiopropyloxy)-3-(4-methylsulfonyl)phenyl-5-trifluoromethylpyridine] | 0.003 to 0.01 | – | 0.039 | – | – | – |
| C[C@]1(O)CCC[C@H]1Oc1ncc(C(F)(F)F)cc1-c1ccc(S(C)(=O)=O)cc1 (single isomer, unassigned) [Example 31, (+)-2-(cis-2-Hydroxy-2-methylcyclopentyloxy)-3-(4-methylsulfonyl)phenyl-5-trifluoromethylpyridine] | 0.037 | – | > 0.1 | – | – | – |
| C[C@@H](O)[C@@H](C)Oc1ncc(C(F)(F)F)cc1-c1ccc(S(C)(=O)=O)cc1 [Example 23, 2-((2R,3R)-3-Hydroxy-2-butyloxy)-3-(4-methylsulfonyl)phenyl-5-trifluoromethylpyridine] | – | 0.0005 | – | 0.05 | > 0.01 | > 0.1 |
| C[C@@H](Oc1ncc(C(F)(F)F)cc1-c1ccc(S(C)(=O)=O)cc1)C(C)(C)O [Example 17, 2-((2R)-3-Hydroxy-3-methyl-2-butyloxy)-3-(4-methylsulfonyl)phenyl-5-trifluoromethylpyridine] | > 0.01 | < 0.0004 | > 0.1 | 0.38 | – | – |
| C[C@]1(O)CCC[C@H]1Oc1ncc(C(F)(F)F)cc1-c1ccc(S(C)(=O)=O)cc1 (single isomer, unassigned) [Example 32, (-)-2-(cis-2-Hydroxy-2-methylcyclopentyloxy)-3-(4-methylsulfonyl)phenyl-5-trifluoromethylpyridine] | > 0.01 | – | > 0.1 | – | – | – |
